This test concerns the target Nuclear receptor ROR-alpha (Homo sapiens) (UniProt P35398). Kind of test: RORA-driven reporter inhibition potency – cell-based, dose response (AID 610).

For nine molecules, IC50 results are on record in PubChem BioAssay AID610 (The Scripps Research Institute Molecular Screening Center, 2007).

What is called IC50 is the concentration that gives 50% inhibition.

Structures are written as SMILES. The source made the active and inactive calls. How the calls were made is not given here.

Nuclear receptor ROR-alpha (Homo sapiens), sequence (P35398 whole entry, looked up): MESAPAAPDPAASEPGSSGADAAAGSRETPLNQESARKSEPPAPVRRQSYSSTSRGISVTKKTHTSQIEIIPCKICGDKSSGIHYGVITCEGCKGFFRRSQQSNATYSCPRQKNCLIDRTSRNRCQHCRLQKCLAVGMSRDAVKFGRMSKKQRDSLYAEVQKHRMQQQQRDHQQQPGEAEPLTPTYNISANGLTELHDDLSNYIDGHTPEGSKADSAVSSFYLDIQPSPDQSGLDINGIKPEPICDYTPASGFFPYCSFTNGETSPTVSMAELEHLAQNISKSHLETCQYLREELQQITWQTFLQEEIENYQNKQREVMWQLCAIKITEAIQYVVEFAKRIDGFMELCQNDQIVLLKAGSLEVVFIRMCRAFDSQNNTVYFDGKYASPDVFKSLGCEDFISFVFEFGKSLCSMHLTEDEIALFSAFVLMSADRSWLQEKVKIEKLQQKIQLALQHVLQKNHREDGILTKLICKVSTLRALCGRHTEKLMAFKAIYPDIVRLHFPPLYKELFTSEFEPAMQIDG

With `O=C(/C=C\Nc1ccc2c(c1)OCO2)c1ccccn1`, the IC50 was 1.52 µM.

As to `COc1cc(/C=N/O)ccc1OCc1ccc(C(=O)O)cc1`, the IC50 is 0.67 µM.

On to `CC(=O)CC1OC(=O)C(Br)=C1NCc1ccccc1` (centres undefined), for which the IC50 entry was “inactive”.

Consider `O=C(O)CCCCCN1C(=O)CSC1=S`, for which the IC50 is > 99 µM (inactive).

On to `COc1cccc2sc(Nc3nc(-c4ccccn4)cs3)nc12`, for which the IC50 is 4.57 µM.

As to `O=C(/C=C\Nc1ccccn1)c1ccc(Cl)cc1`, the IC50 was 8.35 µM.

On to `O=S(=O)(c1ccc2c(c1)C(=NO)c1cc(S(=O)(=O)N3CCCCC3)ccc1-2)N1CCCCC1`, for which the half-maximal inhibitory concentration (IC50) was 2.48 µM.

As for `Cc1ccc(C(=O)/C=C/Nc2ccccn2)cc1`, the half-maximal inhibitory concentration (IC50) is 2.09 µM.

Turning to `COC(=O)C1=C(CN2CCCc3ccccc32)NC(=O)NC1c1ccc(F)cc1` (centres undefined), the IC50 is 6.23 µM.
